From ChEMBL document CHEMBL1146310, “Amplification of DNA-binding affinities of protoberberine alkaloids by appended polyamines” (Bioorg Med Chem Lett, 2007)

What follows are compounds tested on DNA (assay: Binding affinity to calf thymus DNA). Details: Bos taurus.
Type: nucleic-acid assay
`COc1cc2c(cc1OCCCNC(=O)C(N)CCCCN)CC[n+]1cc3c(OCCCNC(=O)C(N)CCCCN)c(OC)ccc3cc1-2` (centres undefined) was tested, and the Kapp was 1.08 10^7/M. In the case of `COc1cc2c(cc1OC)-c1cc3ccc(OC)c(OC)c3c[n+]1CC2`, the Kapp is reported as 8.72 10^3/M. `COc1cc2c(cc1OCCCNC(=O)C(N)CCCCNC(=O)C(N)CCCCN)CC[n+]1cc3c(OCCCNC(=O)C(N)CCCCNC(=O)C(N)CCCCN)c(OC)ccc3cc1-2` (centres undefined) was tested, and the Kapp was 1.15 10^7/M. With `COc1cc2c(cc1OCCCN)CC[n+]1cc3c(OCCCN)c(OC)ccc3cc1-2` the Kapp was 2.81 10^5/M.
